Source: patent publication US20240350447A1, “DELIVERY METHODS FOR TREATING BRAIN AND CENTRAL NERVOUS SYSTEM DISEASES” (JENIVISION INC., priority 2021, published 2024)
Read-outs that look alike come from different tables or passages of the source.

Experiment: Biodistribution of DHA after periorbital skin (NIODP) application to one eye
Format: in vivo, Cynomolgus monkeys
Conditions: for DHA in cornea / DHA in upper eyelid / DHA in vitreous humor / Retina/Upper eyelid ratio of DHA / concentration at 0.5 h / concentration at 3 h / concentration at 6 h / concentration at 24 h / concentration at 0 h / OD/OS retina ratio of DHA: 6755.1 μg to OS via NIODP; for concentration at 0.5 h / concentration at 3 h / concentration at 6 h / concentration at 24 h / concentration at 0 h / Kp: cynomolgus monkey; for OD/OS retina ratio of DHA: undosed/dosed retina
Procedure: An experiment was performed to determine the biodisposition of DHA following topical application to the periorbital skin that surrounds the anterior portion of the globe was performed.
Docosahexaenoic acid (DHA) is an omega-3 fatty acid and an essential component for neuronal formation, function and protection. […] […] High concentrations of DHA (from 35.6 to 97.3 μg/g) were detected in the undoes retina, which is similar to the dosed retina.
Moreover, compared to the baseline retina/plasma ratio of 7-fold, and with no significant changes in plasma, the retina/plasma ratios of DHA in the undosed eye were at least 30-fold at each post dose timepoint, signifying that the undosed retina uptake of DHA was not from blood circulation.

[1] = OD (undosed eye), 0 h (baseline)

For `CC/C=C\C/C=C\C/C=C\C/C=C\C/C=C\C/C=C\CCC(=O)O` [DHA, docosahexaenoic acid], the “DHA in the undosed right cornea and vitreous humor” value (DHA to OS via NIODP) was “No DHA was detectable”, the DHA in cornea [1] was “BLQ” and the “DHA in upper eyelid” value [1] was “BLQ”. For the same molecule, the “DHA in vitreous humor” value [1] was “BLQ”, the “Retina/Upper eyelid ratio of DHA” value (OD (undosed eye), 0.5 h) was 172% and the “Retina/Upper eyelid ratio of DHA” value (OD (undosed eye), 3 h) was 1678%. The “Retina/Upper eyelid ratio of DHA” value (OD (undosed eye), 6 h) was 1057%, the “Retina/Upper eyelid ratio of DHA” value (OD (undosed eye), 24 h) was 672% and the DHA in cornea (OS (dosed eye), 0 h (baseline)) was “BLQ”. The “DHA in upper eyelid” value (OS (dosed eye), 0 h (baseline)) was “BLQ”, the “DHA in vitreous humor” value (OS (dosed eye), 0 h (baseline)) was “BLQ” and the “Retina/Upper eyelid ratio of DHA” value (OS (dosed eye), 0.5 h) was 29%. For the same molecule, the “Retina/Upper eyelid ratio of DHA” value (OS (dosed eye), 3 h) was 16%, the “Retina/Upper eyelid ratio of DHA” value (OS (dosed eye), 6 h) was 735% and the “Retina/Upper eyelid ratio of DHA” value (OS (dosed eye), 24 h) was 292%. The concentration at 0.5 h (cornea of the undosed right eye (OD), topical, OD (undosed eye), 0.5 h, read-out: DHA in cornea) was 0 ng/g, the concentration at 3 h (cornea of the undosed right eye (OD), topical, OD (undosed eye), 3 h, read-out: DHA in cornea) was 0 ng/g and the concentration at 6 h (cornea of the undosed right eye (OD), topical, OD (undosed eye), 6 h, read-out: DHA in cornea) was 0 ng/g. For the same molecule, the concentration at 24 h (cornea of the undosed right eye (OD), topical, OD (undosed eye), 24 h, read-out: DHA in cornea) was 0 ng/g, the concentration at 0 h (plasma, topical, 0 h (baseline), read-out: DHA in plasma) was 2400 ng/mL and the concentration at 0.5 h (plasma, topical, 0.5 h post dose, read-out: DHA in plasma) was 2200 ng/mL. For the same molecule, the concentration at 3 h (plasma, topical, 3 h post dose, read-out: DHA in plasma) was 3100 ng/mL, the concentration at 6 h (plasma, topical, 6 h post dose, read-out: DHA in plasma) was 2100 ng/mL and the concentration at 24 h (plasma, topical, 24 h post dose, read-out: DHA in plasma) was 1200 ng/mL. For the same molecule, the Kp (retina / plasma, baseline (before dosing), read-out: Baseline retina/plasma ratio of DHA) was 7, the concentration at 0 h (retina of the dosed left eye (OS), topical, OS (dosed eye), 0 h (baseline), read-out: DHA in retina) was 16500 ng/g and the Kp (retina of the undosed eye / plasma, topical, 6775.1 μg/eye, each post dose timepoint, DHA to OS via NIODP, read-out: Retina/plasma ratio of DHA in the undosed eye) was at least 30. It also gave a concentration at 0 h (retina of the undosed right eye (OD), topical, OD (undosed eye), 0 h (baseline), read-out: DHA in retina) of 16500 ng/g, a concentration at 0.5 h (retina of the undosed right eye (OD), topical, OD (undosed eye), 0.5 h, read-out: DHA in retina) of 70800 ng/g and a concentration at 3 h (retina of the undosed right eye (OD), topical, OD (undosed eye), 3 h, read-out: DHA in retina) of 97300 ng/g. It also gave a concentration at 6 h (retina of the undosed right eye (OD), topical, OD (undosed eye), 6 h, read-out: DHA in retina) of 78200 ng/g, a concentration at 24 h (retina of the undosed right eye (OD), topical, OD (undosed eye), 24 h, read-out: DHA in retina) of 35600 ng/g and a concentration at 0.5 h (upper eyelid of the undosed right eye (OD), topical, OD (undosed eye), 0.5 h, read-out: DHA in upper eyelid) of 41100 ng/g. The concentration at 3 h (upper eyelid of the undosed right eye (OD), topical, OD (undosed eye), 3 h, read-out: DHA in upper eyelid) was 5800 ng/g, the concentration at 6 h (upper eyelid of the undosed right eye (OD), topical, OD (undosed eye), 6 h, read-out: DHA in upper eyelid) was 7400 ng/g and the concentration at 24 h (upper eyelid of the undosed right eye (OD), topical, OD (undosed eye), 24 h, read-out: DHA in upper eyelid) was 5300 ng/g. It also gave a concentration at 0.5 h (vitreous humor of the dosed left eye (OS), topical, OS (dosed eye), 0.5 h, read-out: DHA in vitreous humor) of 0 ng/mL, a concentration at 3 h (vitreous humor of the dosed left eye (OS), topical, OS (dosed eye), 3 h, read-out: DHA in vitreous humor) of 0 ng/mL and a concentration at 6 h (vitreous humor of the dosed left eye (OS), topical, OS (dosed eye), 6 h, read-out: DHA in vitreous humor) of 0 ng/mL. The concentration at 24 h (vitreous humor of the dosed left eye (OS), topical, OS (dosed eye), 24 h, read-out: DHA in vitreous humor) was 0 ng/mL, the concentration at 0.5 h (vitreous humor of the undosed right eye (OD), topical, OD (undosed eye), 0.5 h, read-out: DHA in vitreous humor) was 0 ng/mL and the concentration at 3 h (vitreous humor of the undosed right eye (OD), topical, OD (undosed eye), 3 h, read-out: DHA in vitreous humor) was 0 ng/mL. For the same molecule, the concentration at 6 h (vitreous humor of the undosed right eye (OD), topical, OD (undosed eye), 6 h, read-out: DHA in vitreous humor) was 0 ng/mL, the concentration at 24 h (vitreous humor of the undosed right eye (OD), topical, OD (undosed eye), 24 h, read-out: DHA in vitreous humor) was 0 ng/mL and the “OD/OS retina ratio of DHA” value (0 h (baseline)) was 100%. For the same molecule, the “OD/OS retina ratio of DHA” value (0.5 h) was 64% and the “OD/OS retina ratio of DHA” value (3 h) was 146%.
